# Measurements from patent US20240074473A1, “METHOD FOR INDUCING HYPERTROPHIC MUSCLE FIBERS FOR INDUSTRIAL MEAT PRODUCTION” (Yeda Research and Development Co. Ltd., priority 2021, published 2024).
# How the values were obtained:
# [1] = tested on: primary chicken myoblasts; assay: Fusion index of primary chicken myoblasts (MyHC immunostaining); format: cell-based; details: for Fusion: 48 hours post treatment
# Protocol: (§1) Chicken primary derived myoblasts were used as a model to evaluate the efficiency of SCH772984 as the ERKi, compared to conventional differentiation medium (DM) for the purpose of producing muscle (meat) in tissue culture conditions. Chicken myoblasts were isolated from chicken embryos and expanded in proliferation medium. When sufficient cell numbers were acquired, cells were seeded on tissue culture plates and allowed to adhere for 24 hours. Then medium was changed to either PM supplemented with ERKi or DM. At 24-hours post treatment, the cells that received ERKi were replenished with fresh PM (without the addition of more ERKi), and DM treated cells were replenished with fresh DM. Media was replaced daily over a period of 72 hours.
# Evaluation of muscle fiber formation was achieved by fixing the cells and staining for expression of Myosin Heavy Chain (FIG. 9A). […] Yet, treatment with conventional DM only began to form fibers beginning at 72-hours post treatment. A fusion index was quantified at 72 hours post treatment (FIG. 9B), in which the percentage of total nuclei present in a myotube (MyHC positive cell with 2 or more nuclei).
# Primary chicken myoblast isolation and treatment: chicken myoblasts were isolated from broiler chicken embryos at day 18 from breast and leg muscles by using Trypsin B. Following tissue dissociation, the cell suspension was grown for 3-4 days on 10% Matrigel coated plates. At the first passage, the cells were lifted and pre-plated twice for 30 minutes to enrich for myoblasts and reduce the number of fibroblasts. Then cells were seeded at 8,000/well of optical-96 well plates in proliferation medium. 24 hours after plating, media was aspirated and replaced with the indicated treatment conditions in proliferation media or differentiation media (as indicated). After 24 hours with treatment, the media was aspirated and all wells were replenished with fresh proliferation media or differentiation media without any treatment. This was repeated daily. Cells were fixed at 48 hours after treatment. Compounds were purchased from Cayman Chemicals.
# Immunofluorescent staining: Cells were fixed with ice cold 4% PFA in PBS for 10 minutes, permeabilized with 0.5% Triton X-100 in PBS for 6 minutes, and blocked in PBS with 0.025% tween, 10% normal horse serum and 10% normal goat serum for 1 hour at room temperature. Primary antibody incubation was done in blocking buffer overnight at 4 degrees, with the following antibodies: Myosin Heavy Chain (MyHC, MF20, DSHB hybridoma supernatant 1:10, alpha-actinin (SIGMA A7811). Cells were washed 3 times in PBS with 0.025% tween and then incubated with appropriate secondary antibodies in PBS 1 hour. Nuclei were labeled with DAPI (SIGMA D9542, 5 ug/ml). All fusion indexes and imaging analysis were performed on at least 1000 per technical repeat.
# chicken myoblasts = assay: Immunofluorescence of sarcomeric proteins in chicken myotubes; format: cell-based; details: 48 hours post treatment
# Protocol: as §1
smiles,measurement,setting,value
O=C(Nc1ccc2[nH]nc(-c3ccncc3)c2c1)[C@@H]1CCN(CC(=O)N2CCN(c3ccc(-c4ncccn4)cc3)CC2)C1 [SCH772984],Muscle fibers begin to form earlier than with DM,[1]; chicken myoblasts,48 h
same,Increase in fusion index compared to DM,"[1]; chicken myoblasts, 72 hours post treatment",~4 fold
same,Fusion index (percentage of total nuclei in MyHC positive cell with 2 or more nuclei),"[1]; chicken myoblasts, 72 hours post treatment, ERKi in PM vs DM",62%
same,Time at which myotubes/fibers begin to form,"[1]; chicken myoblasts, post treatment",≤ 24 h
same,Fusion,"[1]; primary chicken myoblasts, Differentiation media, 1 uM",46%
same,Fusion,"[1]; primary chicken myoblasts, Differentiation media, 10 uM",61%
same,Fusion,"[1]; primary chicken myoblasts, Proliferation media, 1 uM",59%
same,Fusion,"[1]; primary chicken myoblasts, Proliferation media, 10 uM",69%
same,Fusion index,"[1]; primary chicken myoblasts, proliferation medium, ERKi treatment alone (SCH772984 1 uM), 48 hours",62%
same,"Sarcomeric structure (striation of actinin, troponin, phalloidin signals)",chicken myoblasts,sarcomeric structure is already apparent
